This note sets out measurements from patent US8022051B2, “Composition for protection and improvement of skin, or reinforcing skin barrier function comprising phosphatidylserine” (Doosan Corporation, priority 2004, dated 2011).

Experiment [1] has as its system skin keratinocyte cell line (HaCaT) and normal human keratinocytes. In words: Reduction of inflammatory response induced by ultraviolet irradiation in skin keratinocytes (ELISA of TNF-a, IL-6, IL-1alpha). Format: cell-based. The conditions noted are these: 25 mJ/cm^2 UVB; phosphatidylserine 20 and 40 μM, WY-14643 200 μM; 24 hours; FIG. 3. Here is the method:
In order to examine an inflammatory response-reducing effect of the phosphatidylserine of the invention in the skin keratinocyte, which response results from the ultraviolet irradiation, a following experiment was performed in accordance with a method disclosed in the literature (Stefan et. al., The Journal of Investigate Dermatology, 117, pp 1430-1436, 2001).
First, the skin keratinocyte cell line (HaCaT, a gift from Yonsei univeritym, Korea) was seeded to a 35 mm^2 of cell culture dish in an amount of 3×10^5 cells/dish and then cultured for a day. Next day, the culture medium was removed and the cell was washed with 1× phosphate-buffered saline (PBS), 700 μl of 1×PBS was added to each of the dishes, it was irradiated 25 mJ/cm^2 UVB and then PBS was removed. […] Next day, the culture medium was collected and then amounts of TNF-a and IL-6 which have been known as inflammatory cytokines were measured with an enzyme-linked immunosorbent assay (ELISA) method. In addition, in order to check that there occurred a similar inflammatory response reducing effect also in the normal human skin keratinocyte, an experiment was performed in the above-mentioned manner using normal human keratinocytes (a gift from Dong-guk University) instead of the HaCaT cell line and then an amount of IL-1alpha secreted to the culture medium was measured with the ELISA.
For orientation: ELISA stands for enzyme-linked immunosorbent assay.

The next experiment concerns hairless mouse. Description: Skin barrier function restoration (TEWL) after tape stripping in hairless mice, oral administration. The note with it: 0.8 mg/mouse once a day for three weeks, up to 24 hours, compared to mouse not given phosphatidylserine, FIG. 9. Format: in vivo. How it is done:
In this example 9, it was examined a difference of water loss restoration rates in a group to which the phosphatidylserine was administrated and a group to which the phosphatidylserine was not administrated, using the hairless mouse, so as to examine an effect of the phosphatidylserine on the skin barrier function restoring reinforcement.
First, a solution in which the phosphatidylserine (DS-PS, Doosan, Korea) was dispersed in a tertiary distilled water in a concentration of 400 mg/100 ml was used as a test material. It was prepared 10 hairless induced mice which were […] (Japan SLC Inc., Shizuoka, Japan). The solution was orally administrated to 5 mice of them in a dosage of 0.8 mg phosphatidylserine/mouse once a day and the tertiary distilled water was orally administrated to the other 5 mice. The medication period was three weeks. After that, it was measured a water evaporation loss for both sides of the backs of the hairless mice using a TEWL apparatus (TEWAMETER, TW210, Germany) (normal skin: about 10±2 g/hm^2). A Scotch tape was attached to the same positions and then cleared. […] After that, it was measured the water evaporation losses as time went by (i.e., before the injury, immediately after the injury, after 6 hours, after 9 hours and after 24 hours) to check the restoration rate of the skin barrier.

Experiment [2] concerns erythema formation due to UVB on arm inside parts of examinees. In words: Suppression of skin damage (erythema formation) due to ultraviolet irradiation in examinees. It is filed as in vivo, human. The note with it: 0.5% aqueous solution, 30 μl pre-applied; UVB 2, 3 and 4 MED; compared to the control group; FIG. 1. Here is the method: In order to examine a skin damage (inflammatory response)-alleviating effect of the phosphatidylserine of the invention, which stimulation results from the ultraviolet irradiation, a following experiment was performed. At this time, the skin stimulation (inflammatory response) due to the ultraviolet irradiation was measured with an erythema formation level.
First, it was measured minimal erythma dosage (MED) in arm inside parts of examinees (28 years old or more, 10 women and men, respectively). An aqueous solution including phosphatidylserine 0.5% (aqueous solution phase containing 5% PEG 300; PEG300, Sigma, US) was previously applied to the arm inside parts of the examinees in an amount of 30 μl which were then irradiated with UVB (Sankyo Denki G15T8E sunlamps UV-B, Japan) in an intensity of 2 MED (78 mj/cm^2), 3 MED (117 mj/cm^2) and 4 MED (156 mj/cm^2) to measure suppression degrees of the erythema formation. At this time, a group for which the phosphatidylserine was not treated was used as a control group.

The target of a further experiment is T1, PPAR-γ (Homo sapiens, UniProt P37231).
T1 construct: expressed in transfected cells; host or cells: HeLa (KCLB No. 10002)
T1 sequence (P37231 1-505): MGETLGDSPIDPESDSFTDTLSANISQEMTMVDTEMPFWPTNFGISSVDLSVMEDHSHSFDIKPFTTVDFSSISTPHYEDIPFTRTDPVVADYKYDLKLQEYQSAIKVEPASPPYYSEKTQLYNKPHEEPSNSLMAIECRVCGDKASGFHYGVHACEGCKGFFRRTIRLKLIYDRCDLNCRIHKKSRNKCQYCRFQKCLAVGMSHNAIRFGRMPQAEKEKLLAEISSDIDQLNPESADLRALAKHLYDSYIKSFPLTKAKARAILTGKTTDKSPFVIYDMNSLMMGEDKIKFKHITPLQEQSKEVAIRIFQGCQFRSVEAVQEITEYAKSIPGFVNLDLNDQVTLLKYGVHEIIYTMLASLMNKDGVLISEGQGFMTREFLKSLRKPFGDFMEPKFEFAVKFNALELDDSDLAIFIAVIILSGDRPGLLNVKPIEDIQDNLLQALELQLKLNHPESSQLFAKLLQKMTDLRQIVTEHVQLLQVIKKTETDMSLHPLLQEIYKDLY
Description: PPAR-γ activation in HeLa cell line (luciferase reporter). Format: cell-based. The conditions noted are these: 10 and 50 μM; FIG. 7. Here is the method:
In order to examine a PPAR-a activating effect of the phosphatidylserine of the invention, a following experiment was performed. At this time, it was examined activities for the PPAR-a and PPAR-γ retained.
First, a HeLa (Human epithelial carcinoma) (KCLB [Korean Cell Line Bank] No. 10002, Korea) was seeded to a 24-well plate in an amount of 2×10^4 cells/well and then cultured for a day. Next day, in order to perform a cell transfection, 200 ng of PPAR-a over-expression vector, 200 ng of PPRE (peculiar to PPAR-a)-luciferase reporter vector (Promega, USA), and 40 ng of renilla luciferase vector used as the control group in the cell (internal control, i.e., used to examine an transfection efficiency) were mixed in the OMEM (Gibco, USA) culture medium and subject to the transfection to the cell using the lipofectamin (Invitrogen, USA). After four hours, the culture medium was added to be 10% FBS and then cultured for one night. […] An activity of the luciferase was measured with a luminometer using a dual luciferase assay system (Promega, USA). Also in case of PPAR-γ, the same process was performed to measure the activity. At this time, in case of measuring the activity of PPAR-γ, 10 and 50 μM of phosphatidylserine and 50 μM of cyglitazone (Sigma, USA) as the positive control group were treated. […]

Turning to phosphatidylserine, the “inflammatory response increased due to the ultraviolet irradiation (TNF-a, IL-6, IL-1alpha amounts)” value in experiment [1] was “considerably alleviated”. The “restoration rate of the skin barrier function (TEWL)” value with hairless mouse is “higher restoration rate”. The erythema formation entry in experiment [2] is “considerably suppressed”. For the same substance, the “activity of PPAR-γ (luciferase)” value at PPAR-γ is recorded as “had no influence”.
